# Measurements from US20190142840A1, “USE OF SIGMA RECEPTOR LIGANDS IN CANCER” (priority 2016, published 2019).
# Read-outs that look alike come from different tables or passages of the source.
# How the values were obtained:
# [1] = tested on: human lung carcinoma A549 cell line; assay: Proliferation assay (MTT or SRB), A549 cell line; format: cell-based; settings: read-out: IC50 (concentration of drug that inhibited 50% of cell proliferation)
# Experimental: The cells were cultured in Dulbecco's modified Eagle's medium (DMEM) (Sigma, St. Louis, Mo., USA), supplemented with 10% heat-inactivated fetal bovine serum (FBS) (Lonza, Walkersville, Md., USA) and 1% of antibiotics mixture of penicillin (10,000 U/mL) and streptomycin (10 mg/mL) in an humidified 5% CO2 incubator at 37° C. of temperature. Cultured cells were detached with a trypsin-ethylenediamine tetraacetic acid (EDTA) solution (0.25%) and seeded into 24-well plates at a density of 6-15×10^3 cells per well, depending on the cell line.
# After incubation for 24 hours under culture conditions, the cells were treated with either paclitaxel (0.1-50 nM) or Example 1 (5-100 μM). […] The percentage of viability was calculated by utilizing cells without any treatment as control.
# After an incubation time of 96 hours with drugs, the cytotoxicity of the treatments toward the cell lines was evaluated in triplícate by the 3-(4,5-dimethylthiazol-2-yl)-2,5-diphenyl tetrazolium bromide (MTT) proliferation assay, as previously described (Clares et al., 2013), or with a sulforhodamine B (SRB) protocol, as previously described (Melguizo et al., 2015). […] The optical density (OD) of converted dye, which is proportional to the number of viable cells, was measured at 570 nm using a Titertek multiscan colorimeter (Flow Laboratories, Irvine, USA). […]
# [2] = tested on: patients treated for colorectal cancer; assay: Phase 2 placebo-controlled clinical trial of Example 1 with oxaliplatin (FOLFOX4/mFOLFOX6); format: in vivo, human
# Experimental: Thus, the clinical study titled “A proof-concept phase 2, randomized, placebo-controlled, double blind, multicenter clinical trial in two parallel groups to evaluate the efficacy of Example 1 for reducing the incidence and severity of oxaliplatin-induced peripheral neuropathy in patients treated for colorectal cancer” was performed.
# The study period was 24 weeks of chemotherapy (one chemo cycle every 2 weeks=12 chemo cycles) plus 6 weeks (follow-up) and having as relevant safety objective to explore the incidence of adverse events by severity, of serious adverse effects, of adverse events leading to Example 1 discontinuation and of adverse events related to Example 1.
# Patients received either: • oral daily Example 1, 400 mg/day, during the first 5 days of every chemotherapy cycle, starting the day before the cycle, up to a maximum of 12 cycles (Arm 1), • or oral daily placebo during the first 5 days of every chemotherapy cycle, starting the day before the cycle, up to a maximum of 12 cycles (Arm 2).
# Patients were randomized to one of the two above mentioned Arms.
# It was expected that chemotherapy cycles were repeated every 14 days for a maximum of 6 months (12 cycles) in the absence of disease progression or unacceptable toxicity.
# [3] = tested on: human breast adenocarcinoma MCF7 European cell line; assay: Proliferation assay (MTT or SRB), MCF7 European cell line; format: cell-based; settings: for cytotoxic effect of association with paclitaxel: 10 μM sigma-1 receptor antagonist + 10 nM paclitaxel; for IC50: Homo sapiens, read-out: IC50 (concentration of drug that inhibited 50% of cell proliferation)
# Experimental: (§1) The human breast adenocarcinoma MCF7 European cell line, the human lung carcinoma A549 cell line and the B16-F10 murine melanoma cell line were obtained from the University of Granada Scientific Instrumentation Centre (Spain) and the American Type Culture Collection (ATCC). The cells were cultured in Dulbecco's modified Eagle's medium (DMEM) (Sigma, St. Louis, Mo., USA), supplemented with 10% heat-inactivated fetal bovine serum (FBS) (Lonza, Walkersville, Md., USA) and 1% of antibiotics mixture of penicillin (10,000 U/mL) and streptomycin (10 mg/mL) in an humidified 5% CO2 incubator at 37° C. of temperature. […] The percentage of viability was calculated by utilizing cells without any treatment as control. […] In the MTT protocol, 20 μL of MTT solution in cell culture medium (5 mg/mL) was added to each well. […] The optical density (OD) of converted dye, which is proportional to the number of viable cells, was measured at 570 nm using a Titertek multiscan colorimeter (Flow Laboratories, Irvine, USA). The percentage of surviving cells was calculated as the OD ratio of treated cells to control (untreated) cells (×100). In the SRB protocol, the cells were washed three times with PBS, and 300 μL of 10% trichloroacetic acid was used to fix the cells (20 minutes at 4° C.). Then, the cells were washed three times with distilled water and left to dry before 300 μL of SRB was added. Incubation under mechanical stirring was continued for 20 minutes, and the excess SRB was removed by the addition of a 1% acetic acid solution. Then, the cells were left to dry. […] Sigma-Aldrich) was used for dye resuspension. The optical density (OD) of SRB was measured at 492 nm (Titertek® Multiskan colorimeter; Flow Laboratories Ltd, Oldham, UK) and analyzed with Ascent software version 2.6 (ThermoLab systems, Helsinki, Finland). In all cases, the percentage of surviving cells was calculated as: [OD treated cells/OD control (untreated) cells)]×100. The IC50 values (concentration of drug that inhibited 50% of cell proliferation) were estimated from the inhibition curves.
# [4] = tested on: B16-F10 murine melanoma cell line; assay: Proliferation assay (MTT or SRB), B16-F10 cell line; format: cell-based; settings: for cytotoxic effect of association with paclitaxel: 10 μM sigma-1 receptor antagonist + 10 nM paclitaxel; for IC50: Mus musculus, read-out: IC50 (concentration of drug that inhibited 50% of cell proliferation)
# Experimental: as §1
# [5] = target: sigma (σ-2) site (Homo sapiens, UniProt Q5BJF2); settings: background statement; cited from earlier work
# Chain of sigma (σ-2) site (Q5BJF2 whole entry): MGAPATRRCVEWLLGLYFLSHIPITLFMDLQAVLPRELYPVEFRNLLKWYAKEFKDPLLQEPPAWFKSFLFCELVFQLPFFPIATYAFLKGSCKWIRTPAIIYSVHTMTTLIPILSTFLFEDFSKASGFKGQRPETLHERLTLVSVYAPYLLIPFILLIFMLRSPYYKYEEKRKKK
# [6] = target: sigma 1 (σ-1) site (Homo sapiens, UniProt Q99720); settings: background statement; cited from earlier work
# Chain of sigma 1 (σ-1) site (Q99720 whole entry): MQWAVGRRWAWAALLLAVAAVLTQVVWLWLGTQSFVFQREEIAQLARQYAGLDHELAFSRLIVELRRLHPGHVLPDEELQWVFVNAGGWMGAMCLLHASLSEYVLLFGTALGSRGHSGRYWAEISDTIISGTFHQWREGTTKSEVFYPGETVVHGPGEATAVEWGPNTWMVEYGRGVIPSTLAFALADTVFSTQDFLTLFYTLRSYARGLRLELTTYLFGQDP
# [7] = Example 1 400 mg/day oral with oxaliplatin, % apparently of the 27 discontinuations
# [8] = Example 1 400 mg/day oral with oxaliplatin, % of n = 62 randomized
# [9] = Example 1 400 mg/day oral with oxaliplatin, number of subjects
# [10] = patients treated with Example 1 versus placebo
compound,measurement,setting,value
"Cc1cc(OCCN2CCOCC2)nn1-c1ccc2ccccc2c1 [Example 1, 4-{2-[5-Methyl-1-(naphthalen-2-yl)-1H-pyrazol-3-yloxy]ethyl}morpholine]",IC50,"[1]; A549, 96 h",100 µM
same,Discontinuations: Physician decision (%),[2]; [7],11.1%
same,Discontinuations: Progressive Disease (%),[2]; [7],7.4%
same,Number of Completers (%),[2]; [8],56.5%
same,Number of discontinuations (%),[2]; [8],43.5%
same,Number of discontinuations,"[2]; Example 1 400 mg/day oral with oxaliplatin, n = 62, number of subjects",27
same,Discontinuations: Physician decision,[2]; [9],3
same,Discontinuations: Progressive Disease,[2]; [9],2
same,Number of Completers,"[2]; Example 1 400 mg/day oral, first 5 days of each cycle, with oxaliplatin, n = 62 randomized, number of subjects",35
same,more patients completed the 12 cycles of Oxaliplatin therapy,[2]; Example 1 added to chemotherapy versus placebo,14.6%
same,Oxaliplatin dosing attained,[2]; [10],higher Oxaliplatin dosing
same,patients discontinued because of cancer progression or physician decision,[2]; [10],Less patients
same,tolerability of the chemotherapy,[2]; [10],tolerated better the chemotherapy
same,cytotoxic effect of association with paclitaxel,[3]; MCF7 European cell culture,better results than Haloperidol and BD-1063
same,cytotoxic effect of association with paclitaxel,"[3]; MCF7 European cell culture, listed as Example-1",greater than summative
same,IC50,"[3]; MCF7, 96 h",83 µM
same,cytotoxic effect of association with paclitaxel,[4]; B16-F10 cell culture,better results than Haloperidol and BD-1063
same,cytotoxic effect of association with paclitaxel,"[4]; B16-F10 cell culture, listed as Example-1",greater than summative
same,IC50,"[4]; B16-F10, 96 h",27 µM
SKF 10047,affinity for the sigma (σ-2) site,[5],micromolar affinity
same,affinity for the sigma 1 (σ-1) site,[6],nanomolar affinity
"O=C(CCCN1CCC(O)(c2ccc(Cl)cc2)CC1)c1ccc(F)cc1 [haloperidol, reference compound]",cytotoxic effect of association with paclitaxel,[3]; MCF7 European cell culture,greater than summative
same,cytotoxic effect of association with paclitaxel,[4]; B16-F10 cell culture,greater than summative
"CC(=O)O[C@H]1C(=O)[C@@]2(C)[C@H]([C@H](OC(=O)c3ccccc3)[C@]3(O)C[C@H](OC(=O)[C@H](O)[C@@H](NC(=O)c4ccccc4)c4ccccc4)C(C)=C1C3(C)C)[C@]1(OC(C)=O)CO[C@@H]1C[C@@H]2O [Paclitaxel, reference compound]",IC50,"[1]; A549, A-549 cells, 96 hours incubation",0.003 µM
same,IC50,"[3]; MCF7 European cells, 96 hours incubation",0.0085 µM
same,cytotoxicity,"[3]; paclitaxel alone at 10 nM, MCF7 European cell culture",around 35%
same,IC50,"[4]; B16-F10 cells, 96 hours incubation",0.015 µM
same,cytotoxicity,"[4]; paclitaxel alone at 10 nM, B16-F10 cell culture",around 35%
